Data: ChEMBL document CHEMBL1649408, “Synthesis and in vitro antimycobacterial activity of 8-OCH(3) ciprofloxacin methylene and ethylene isatin derivatives” (Eur J Med Chem, 2011)
Converted amounts (≈) assume the structure as drawn.

Tests used:
[1] = test system: Mycolicibacterium smegmatis; assay: Antimycobacterial activity against Mycobacterium smegmatis CMCC 93202 after 72 hrs by serial double dilution technique; format: functional; conditions: CMCC 93202, 72 h
[2] = Cytotoxicity against african green monkey Vero cells after 72 hrs by MTT assat; conditions: chlorocebus sabaeus
[3] = test system: Mycobacterium tuberculosis; assay: microbe, parasite or virus in culture; format: functional; conditions: H37Rv ATCC 27294, 168 h
Description: Antimycobacterial activity against Mycobacterium tuberculosis H37Rv ATCC 27294 after 7 days by serial double dilution technique

[4] = test system: Mycobacterium tuberculosis; assay: Ratio of compound MIC to 8-OCH3 ciprofloxacin MIC for Mycobacterium tuberculosis H37Rv ATCC 27294; format: functional

SMILES | MIC [1] [µM] | CC50 at 72 h ([2]; Vero cells) [µM] | MIC [3] [µM] | Ratio [4] | CC50 at 72 h ([2]; vero) [µM]
COc1c(N2CCNCC2)c(F)cc2c(=O)c(C(=O)O)cn(C3CC3)c12 | 0.54 (≈ 0.195 µg/mL) | 242 | 0.22 (≈ 0.0795 µg/mL) |  | 
CO/N=C1\C(=O)N(CCN2CCN(c3c(F)cc4c(=O)c(C(=O)O)cn(C5CC5)c4c3OC)CC2)c2ccccc21 | 2.77 (≈ 1.56 µg/mL) | 306 | 1.14 (≈ 0.642 µg/mL) |  | 
COc1c(N2CCN(CN3C(=O)C(=O)c4ccccc43)CC2)c(F)cc2c(=O)c(C(=O)O)cn(C3CC3)c12 | 24 (≈ 12.5 µg/mL) | 70.8 | 0.15 (≈ 0.0781 µg/mL) |  | 
COc1c(N2CCN(CN3C(=O)C(=O)c4cc(F)ccc43)CC2)c(F)cc2c(=O)c(C(=O)O)cn(C3CC3)c12 | 2.9 (≈ 1.56 µg/mL) | 70.6 | 0.074 (≈ 0.0398 µg/mL) |  | 
COc1c(N2CCN(CN3C(=O)/C(=N\O)c4ccccc43)CC2)c(F)cc2c(=O)c(C(=O)O)cn(C3CC3)c12 | 2.92 (≈ 1.56 µg/mL) | 74.4 | 0.15 (≈ 0.0803 µg/mL) |  | 
COc1c(N2CCN(CN3C(=O)/C(=N\O)c4cc(F)ccc43)CC2)c(F)cc2c(=O)c(C(=O)O)cn(C3CC3)c12 | 1.41 (≈ 0.78 µg/mL) | 73.8 | 0.14 (≈ 0.0775 µg/mL) |  | 
CO/N=C1\C(=O)N(CN2CCN(c3c(F)cc4c(=O)c(C(=O)O)cn(C5CC5)c4c3OC)CC2)c2ccccc21 | 5.68 (≈ 3.12 µg/mL) | 76.5 | 0.15 (≈ 0.0824 µg/mL) |  | 
CO/N=C1\C(=O)N(CN2CCN(c3c(F)cc4c(=O)c(C(=O)O)cn(C5CC5)c4c3OC)CC2)c2ccc(F)cc21 | 2.75 (≈ 1.56 µg/mL) | 46.8 | 0.14 (≈ 0.0795 µg/mL) | 1.6 | 
CCO/N=C1\C(=O)N(CN2CCN(c3c(F)cc4c(=O)c(C(=O)O)cn(C5CC5)c4c3OC)CC2)c2ccccc21 | 2.77 (≈ 1.56 µg/mL) | 91.5 | 0.14 (≈ 0.0789 µg/mL) |  | 
CCO/N=C1\C(=O)N(CN2CCN(c3c(F)cc4c(=O)c(C(=O)O)cn(C5CC5)c4c3OC)CC2)c2ccc(F)cc21 | 2.68 (≈ 1.56 µg/mL) | 85.8 | 0.55 (≈ 0.32 µg/mL) |  | 
COc1c(N2CCN(CN3C(=O)/C(=N\NC(N)=O)c4ccccc43)CC2)c(F)cc2c(=O)c(C(=O)O)cn(C3CC3)c12 | 1.35 (≈ 0.78 µg/mL) | 266 | 0.14 (≈ 0.0809 µg/mL) | 1.6 | 
COc1c(N2CCN(CN3C(=O)/C(=N\NC(N)=O)c4cc(F)ccc43)CC2)c(F)cc2c(=O)c(C(=O)O)cn(C3CC3)c12 | 2.62 (≈ 1.56 µg/mL) | 168 | 0.13 (≈ 0.0774 µg/mL) | 1.6 | 
COc1c(N2CCN(CN3C(=O)/C(=N\NC(N)=S)c4ccccc43)CC2)c(F)cc2c(=O)c(C(=O)O)cn(C3CC3)c12 | 2.63 (≈ 1.56 µg/mL) | 154 | 0.13 (≈ 0.0772 µg/mL) | 1.6 | 
COc1c(N2CCN(CCN3C(=O)C(=O)c4ccccc43)CC2)c(F)cc2c(=O)c(C(=O)O)cn(C3CC3)c12 | 5.84 (≈ 3.12 µg/mL) |  |  |  | 
COc1c(N2CCN(CCN3C(=O)C(=O)c4cc(F)ccc43)CC2)c(F)cc2c(=O)c(C(=O)O)cn(C3CC3)c12 | 2.83 (≈ 1.56 µg/mL) |  |  |  | 
COc1c(N2CCN(CCN3C(=O)/C(=N\O)c4ccccc43)CC2)c(F)cc2c(=O)c(C(=O)O)cn(C3CC3)c12 | 11.4 (≈ 6.25 µg/mL) |  |  |  | 
COc1c(N2CCN(CCN3C(=O)/C(=N\O)c4cc(F)ccc43)CC2)c(F)cc2c(=O)c(C(=O)O)cn(C3CC3)c12 | 22.1 (≈ 12.5 µg/mL) |  |  |  | 
CO/N=C1\C(=O)N(CCN2CCN(c3c(F)cc4c(=O)c(C(=O)O)cn(C5CC5)c4c3OC)CC2)c2ccc(F)cc21 | 2.68 (≈ 1.56 µg/mL) | 12.8 | 1.1 (≈ 0.64 µg/mL) |  | 
COc1c(N2CCN(CCN3C(=O)/C(=N\NC(N)=S)c4cc(F)ccc43)CC2)c(F)cc2c(=O)c(C(=O)O)cn(C3CC3)c12 | 2.5 (≈ 1.56 µg/mL) | 57 | 1.02 (≈ 0.638 µg/mL) |  | 
CCO/N=C1\C(=O)N(CCN2CCN(c3c(F)cc4c(=O)c(C(=O)O)cn(C5CC5)c4c3OC)CC2)c2ccccc21 | 5.41 (≈ 3.12 µg/mL) |  |  |  | 
CCO/N=C1\C(=O)N(CCN2CCN(c3c(F)cc4c(=O)c(C(=O)O)cn(C5CC5)c4c3OC)CC2)c2ccc(F)cc21 | 1.31 (≈ 0.78 µg/mL) |  |  |  | 
COc1c(N2CCN(CCN3C(=O)/C(=N\NC(N)=O)c4ccccc43)CC2)c(F)cc2c(=O)c(C(=O)O)cn(C3CC3)c12 | 5.28 (≈ 3.12 µg/mL) |  |  |  | 
COc1c(N2CCN(CCN3C(=O)/C(=N\NC(N)=O)c4cc(F)ccc43)CC2)c(F)cc2c(=O)c(C(=O)O)cn(C3CC3)c12 | 5.12 (≈ 3.12 µg/mL) |  |  |  | 
COc1c(N2CCN(CCN3C(=O)/C(=N\NC(N)=S)c4ccccc43)CC2)c(F)cc2c(=O)c(C(=O)O)cn(C3CC3)c12 | 2.57 (≈ 1.56 µg/mL) | 56.1 | 1.05 (≈ 0.638 µg/mL) |  | 
O=C(O)c1cn(C2CC2)c2cc(N3CCNCC3)c(F)cc2c1=O [CIPROFLOXACIN] | 2.36 (≈ 0.782 µg/mL) |  | 0.97 (≈ 0.321 µg/mL) |  | 601
NNC(=O)c1ccncc1 [ISONIAZID] | 5.69 (≈ 0.78 µg/mL) |  | 0.29 (≈ 0.0398 µg/mL) |  | 
CO[C@H]1/C=C/O[C@@]2(C)Oc3c(C)c(O)c4c(O)c(c(/C=N/N5CCN(C)CC5)c(O)c4c3C2=O)NC(=O)/C(C)=C\C=C\[C@H](C)[C@H](O)[C@@H](C)[C@@H](O)[C@@H](C)[C@H](OC(C)=O)[C@@H]1C [RIFAMPIN] | 3.79 (≈ 3.12 µg/mL) | 180 | 0.19 (≈ 0.156 µg/mL) |  | 
